US12115152B2, “Pan-RAF kinase inhibitor and use thereof” (HEFEI INSTITUTES OF PHYSICAL SCIENCE, CHINESE ACADEMY OF …, priority 2019, dated 2024)
“And” between values parts separate entries of the source, which are not always exact repeats. Identical values can stand only once. Like-named read-outs stand apart in the source and are kept apart here.

Test: Pharmacokinetic parameters in rats
Format: in vivo, SD rats
Details: rat
Protocol: In the example, SD rats (180-220 g, male) (purchased from Experimental Animal Center of Anhui Medical University, China) were used. The animals were kept in cages ventilated independently with 6 rats per cage. The feeding was performed at a temperature of 20˜26° C. and a humidity of 35-75%. The light condition was 12 hours of lighting/12 hours of darkness. The corncob bedding was refreshed once a week. The rats were fed with foods and drinking water on an ad libitum basis. The rats were marked with a number on the tails. During the experiment, the breeding and use of animals strictly follow the regulations of Association for Assessment and Accreditation of Laboratory Animal Care International.
Solutions of Compound 16 and Comparative Compound 1 were prepared as follows. 10 mg of the compound to be tested was precisely weighed into a sterile vial, and was dissolved with a small amount of DMSO, and then was made to a constant volume of 5 ml with 5% glucose solution, to give a gavage test solution at a concentration of 2 mg/mL. 0.5 ml of the above gavage test solution at a concentration of 2 mg/mL was precisely taken, and was made to constant volume of 5 ml with 4.5 ml of 5% glucose solution, to give an intravenous injection test solution at a concentration of 0.2 mg/mL. The solution was prepared immediately before being used in the experiment.
6 SD rats were randomly divided into two groups, and the synthesized compounds were administered by gavage and tail vein injection, respectively. About 0.3 mL of blood samples were collected from the retro-orbital venous plexus at 0 h before administration and at 5 min, 15 min, 30 min, 1 h, 1.5 h, 2 h, 4 h, 6 h, 9 h, 12 h, 24 h after administration for the gavage group; and at 0 h before administration and at 2 min, 5 min, 15 min, 30 min, 1 h, 2 h, 4 h, 6 h, 9 h, and 12 h after administration for the tail vein group. Each of the collected blood samples was put in a 1.5 mL centrifuge tube with heparin (Sigma, USA). The sample was centrifuged at 6000 rpm for 3 min to separate the plasma. 100 μL of plasma in the upper layer was placed into a new 1.5 mL centrifuge tube, and stored at −80° C. for determination. 10 mg of a standard for the compound to be tested was precisely weighed into a 10 mL volumetric flask, and was dissolved by adding methanol to make a constant volume and mixed uniformly, to give a 1 mg/mL stock solution. The stock solution was then diluted gradually with methanol to give a series of working solutions at concentrations of 0.01, 0.02, 0.05, 0.1, 0.2, 0.5, 1, 2, 5, 10, 20 μg/mL. The working solutions were placed in a refrigerator at 4° C. for later use. 11 centrifuge tubes were used. 10 μL of the above working solutions was respectively added to each of the centrifuge tubes, and then 90 μL of blank rat plasma was respectively added therein. The mixtures were mixed uniformly, so that the concentration of the compound in the rat plasma was 1, 2, 5, 10, 20, 50, 100, 200, 500, 1000, 2000 ng/mL. Then, 20 μL of a solution of caffeine as the internal standard (200 ng/mL) (National Institutes for Food and Drug Control, China) was added therein, and the resultant mixtures were vortexed for 10 s. Next, 400 μL of methanol was added. The resultant mixtures were vortexed for 10 min, and centrifuged at 16000 rpm for 5 min. Thereafter, 70 μL of the supernatant was placed into the inserted pipe of a sampling bottle. 5 μL of the sample was introduced for a LC-MS/MS analysis. A standard curve of the compound in the rat plasma was obtained by means of a linear regression performed by taking the ratio of the peak area of the sample to that of the internal standard As/Ais as the vertical ordinate, taking the concentration C (μg/mL) as the horizontal ordinate, and taking 1/C^2 was taken as a weighting coefficient.
To 100 μL of the rat plasma to be tested stored at −80° C., 20 μL of a caffeine solution (200 ng/mL) as the internal standard was added. The resultant mixture was vortexed for 10 s. […]

[1] = male, Sprague-Dawley, plasma, iv, 1 mg/kg, intravenous injection 1 mg/kg, average n=3
[2] = male, Sprague-Dawley, plasma, iv, 1 mg/kg, intravenous injection 1 mg/kg, individual rats #1-#3
[3] = intravenous injection 1 mg/kg, average n=3
[4] = intravenous injection 1 mg/kg, individual rats #1-#3, listed as Comparative Compound 1, 1 mg/kg
[5] = oral administration (gavage) 10 mg/kg, average n=3
[6] = oral administration (gavage) 10 mg/kg, individual rats #1-#3, listed as Comparative Compound 1, 10 mg/kg

## Cc1ccc(NC(=O)c2cccc(C(F)(F)F)c2)cc1-n1cc(-c2cccnc2)cn1 [compound 1, 3-trifluoromethyl-N-(4-methyl-3-(4-(pyrid-3-yl)-1H-pyrazol-1-yl)phenyl)benzamide, reference compound]
male, SD, plasma, po, 10 mg/kg, oral administration (gavage) 10 mg/kg, average n=3
  AUC(0-inf): 1020 ng·h/mL
male, SD, plasma, po, 10 mg/kg, oral administration (gavage) 10 mg/kg, average n=3, read-out: Tmax
  Tmax: 30 min
male, SD, plasma, po, 10 mg/kg, oral administration (gavage) 10 mg/kg, average n=3, read-out: T½ (converted)
  half-life: 54.4 min
male, SD, plasma, po, 10 mg/kg, oral administration (gavage) 10 mg/kg, individual rats #1-#3, read-out: Tmax
  Tmax: 30 min
male, SD, plasma, po, 10 mg/kg, oral administration (gavage) 10 mg/kg, individual rats #1-#3, read-out: T½ (converted)
  half-life: 60.2 min
[1]
  AUC(0-inf): 92.5 ng·h/mL
  clearance: 188 mL/min/kg
male, Sprague-Dawley, plasma, iv, 1 mg/kg, intravenous injection 1 mg/kg, average n=3, read-out: AUC0-t
  AUC0-t: 91.6 ng·h/mL
male, Sprague-Dawley, plasma, iv, 1 mg/kg, intravenous injection 1 mg/kg, average n=3, read-out: C0
  C0: 348 ng/mL
male, Sprague-Dawley, plasma, iv, 1 mg/kg, intravenous injection 1 mg/kg, average n=3, read-out: Cmax
  Cmax: 262 ng/mL
male, Sprague-Dawley, plasma, iv, 1 mg/kg, intravenous injection 1 mg/kg, average n=3, read-out: MRT0-t
  MRT last: 34 min
male, Sprague-Dawley, plasma, iv, 1 mg/kg, intravenous injection 1 mg/kg, average n=3, read-out: MRT0-∞
  MRT inf: 37 min
male, Sprague-Dawley, plasma, iv, 1 mg/kg, intravenous injection 1 mg/kg, average n=3, read-out: Tmax
  Tmax: 1.98 min
male, Sprague-Dawley, plasma, iv, 1 mg/kg, intravenous injection 1 mg/kg, average n=3, read-out: T½ (converted)
  half-life: 42.9 min
male, Sprague-Dawley, plasma, iv, 1 mg/kg, intravenous injection 1 mg/kg, average n=3, read-out: Vz
  Vd: 12 L/kg
[2]
  AUC(0-inf): 84 ng·h/mL
  clearance: 198 mL/min/kg
male, Sprague-Dawley, plasma, iv, 1 mg/kg, intravenous injection 1 mg/kg, individual rats #1-#3, read-out: AUC0-t
  AUC0-t: 83.3 ng·h/mL
male, Sprague-Dawley, plasma, iv, 1 mg/kg, intravenous injection 1 mg/kg, individual rats #1-#3, read-out: C0
  C0: 260 ng/mL
male, Sprague-Dawley, plasma, iv, 1 mg/kg, intravenous injection 1 mg/kg, individual rats #1-#3, read-out: Cmax
  Cmax: 200 ng/mL
male, Sprague-Dawley, plasma, iv, 1 mg/kg, intravenous injection 1 mg/kg, individual rats #1-#3, read-out: MRT0-t
  MRT last: 36.3 min
male, Sprague-Dawley, plasma, iv, 1 mg/kg, intravenous injection 1 mg/kg, individual rats #1-#3, read-out: MRT0-∞
  MRT inf: 38.5 min
male, Sprague-Dawley, plasma, iv, 1 mg/kg, intravenous injection 1 mg/kg, individual rats #1-#3, read-out: Tmax
  Tmax: 1.98 min
male, Sprague-Dawley, plasma, iv, 1 mg/kg, intravenous injection 1 mg/kg, individual rats #1-#3, read-out: T½ (converted)
  half-life: 38.8 min
male, Sprague-Dawley, plasma, oral, 10 mg/kg, oral administration (gavage) 10 mg/kg vs intravenous 1 mg/kg, average n=3, read-out: F (oral bioavailability)
  bioavailability: 111%
male, Sprague-Dawley, plasma, po, 10 mg/kg, oral administration (gavage) 10 mg/kg, average n=3, read-out: AUC0-t
  AUC0-t: 1010 ng·h/mL
male, Sprague-Dawley, plasma, po, 10 mg/kg, oral administration (gavage) 10 mg/kg, average n=3, read-out: Cmax
  Cmax: 576 ng/mL
male, Sprague-Dawley, plasma, po, 10 mg/kg, oral administration (gavage) 10 mg/kg, average n=3, read-out: MRT0-t
  MRT last: 93.7 min
male, Sprague-Dawley, plasma, po, 10 mg/kg, oral administration (gavage) 10 mg/kg, average n=3, read-out: MRT0-∞
  MRT inf: 98.5 min
male, Sprague-Dawley, plasma, po, 10 mg/kg, oral administration (gavage) 10 mg/kg, individual rats #1-#3, read-out: MRT0-t
  MRT last: 109 min
male, Sprague-Dawley, plasma, po, 10 mg/kg, oral administration (gavage) 10 mg/kg, individual rats #1-#3, read-out: MRT0-∞
  MRT inf: 115 min
[3]
  AUMC0-t: 53.50 hr*hr*ng/ml
  AUMC0-∞: 58.31 hr*hr*ng/ml
[4]
  AUC0-t: 71.86 ng·h/mL and 119.59 ng·h/mL
  AUC0-∞: 73.08 ng·h/mL and 120.51 ng·h/mL
  AUMC0-t: 50.39 hr*hr*ng/ml and 31.52 hr*hr*ng/ml and 78.58 hr*hr*ng/ml
  AUMC0-∞: 53.89 hr*hr*ng/ml and 37.99 hr*hr*ng/ml and 83.06 hr*hr*ng/ml
  C0: 402.4 ng/mL and 380.8 ng/mL
  Cl: 228.07 mL/min/kg and 138.3 mL/min/kg
  Cmax: 285.0 ng/mL and 300.0 ng/mL
  MRT0-t: 26.3 min and 39.4 min
  MRT0-∞: 31.2 min and 41.3 min
  T½: 54.4 min and 35.5 min
  Vz: 11.101 L/kg and 17.886 L/kg and 7.085 L/kg
Oral administration (gavage) 10 mg/kg vs intravenous 1 mg/kg, individual rats #1-#3, listed as Comparative Compound 1
  F (oral bioavailability): 31.2% and 133.6% and 167.2%
[5]
  AUMC0-t: 1474 hr*hr*ng/ml
  AUMC0-∞: 1566 hr*hr*ng/ml
  Cl: 273.12 mL/min/kg
  Vz: 22.672 L/kg
[6]
  AUC0-t: 285.6 ng·h/mL and 1217 ng·h/mL and 1532 ng·h/mL
  AUC0-∞: 289.0 ng·h/mL and 1236 ng·h/mL and 1547 ng·h/mL
  AUMC0-t: 518.7 hr*hr*ng/ml and 1889 hr*hr*ng/ml and 2013 hr*hr*ng/ml
  AUMC0-∞: 554.4 hr*hr*ng/ml and 2023 hr*hr*ng/ml and 2121 hr*hr*ng/ml
  Cl: 576.77 mL/min/kg and 134.8 mL/min/kg and 107.8 mL/min/kg
  Cmax: 138 ng/mL and 579 ng/mL and 1010 ng/mL
  MRT0-t: 93.12 min and 78.84 min
  MRT0-∞: 98.22 min and 82.26 min
  T½: 49.3 min and 53.6 min
  Vz: 50.104 L/kg and 9.579 L/kg and 8.334 L/kg
